# Molecular target: T1, human PTH1 receptor (Homo sapiens, UniProt Q03431)
# T1 sequence (Q03431 27-593): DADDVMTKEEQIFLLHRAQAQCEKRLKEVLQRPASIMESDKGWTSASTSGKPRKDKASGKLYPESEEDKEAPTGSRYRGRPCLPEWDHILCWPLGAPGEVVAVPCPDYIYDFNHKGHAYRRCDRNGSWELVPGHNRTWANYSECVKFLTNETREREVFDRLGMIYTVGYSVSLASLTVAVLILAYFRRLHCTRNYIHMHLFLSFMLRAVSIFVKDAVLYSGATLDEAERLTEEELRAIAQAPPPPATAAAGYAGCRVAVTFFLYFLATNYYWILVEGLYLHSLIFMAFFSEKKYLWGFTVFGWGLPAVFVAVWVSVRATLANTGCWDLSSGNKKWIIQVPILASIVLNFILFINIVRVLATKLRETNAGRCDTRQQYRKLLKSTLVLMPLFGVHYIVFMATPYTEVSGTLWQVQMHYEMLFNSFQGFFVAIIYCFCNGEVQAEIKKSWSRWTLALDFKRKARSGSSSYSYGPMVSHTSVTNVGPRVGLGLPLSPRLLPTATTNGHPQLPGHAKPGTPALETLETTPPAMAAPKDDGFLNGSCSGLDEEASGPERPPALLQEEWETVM
# Experiment: In vitro cAMP signal activity in HKRK-B7 cells (LLC-PK1 cells overexpressing the human PTH1 receptor)
# Assay type: cell-based
# Details: HKRK-B7 cells; compound at 1×10^−3 M; cAMP produced as percentage of that produced by hPTH(1-34) at 100 nM
row,SMILES,cAMP production activity (%)
1,"O=C1NC(C2CCCN(S(=O)(=O)CCc3cccc4ccccc34)C2)=NC12CCN(S(=O)(=O)CCc1cccc3ccccc13)CC2 (stereo not drawn) [Compound 39, 8-(2-Naphthalen-1-yl-ethanesulfonyl)-2-[1-(2-naphthalen-1-yl-ethanesulfonyl)-piperidin-3-yl]-1,3,8-triaza-spiro[4.5]dec-1-en-4-one]",25
2,"Cc1cc(NS(N)(=O)=O)ccc1/C=C/S(=O)(=O)N1CCC2(CC1)N=C(c1cccc(OC(F)(F)F)c1)NC2=O [Compound 742, N-(3-Methyl-4-{(E)-2-[4-oxo-2-(3-trifluoromethoxy-phenyl)-1,3,8-triaza-spiro[4.5]dec-1-ene-8-sulfonyl]-vinyl}-phenyl)-sulfamide]",50
3,"Cc1cc(N(C)C(N)=O)cc(C)c1CCS(=O)(=O)N1CCC2(CC1)N=C(c1ccc(CCCC(F)(F)F)cc1)NC2=O [Compound 1358, 1-[3,5-dimethyl-4-(2-{4-oxo-2-[4-(4,4,4-trifluoro-butyl)-phenyl]-1,3,8-triaza-spiro[4.5]dec-1-ene-8-sulfonyl}-ethyl)-phenyl]-1-methyl-urea]",153
4,"Cc1cc(C(=O)N(C)CCCO)cc(C)c1/C=C/S(=O)(=O)N1CCC2(CC1)N=C(c1cccc(C(F)(F)F)c1)NC2=O [Compound 389, N-(3-hydroxy-propyl)-3,5,N-trimethyl-4-{(E)-2-[4-oxo-2-(3-trifluoromethyl-phenyl)-1,3,8-triaza-spiro[4.5]dec-1-ene-8-sulfonyl]-vinyl}-benzamide]",75
5,"Cc1cc(N(C)C(N)=O)cc(C)c1/C=C/S(=O)(=O)N1CCC2(CC1)N=C(CCCCCCCCC(F)(F)F)NC2=O [Compound 1304, 1-(3,5-dimethyl-4-{(E)-2-[4-oxo-2-(9,9,9-trifluoro-nonyl)-1,3,8-triaza-spiro[4.5]dec-1-ene-8-sulfonyl]-vinyl}-phenyl)-1-methyl-urea]",107
6,"Cc1cc(N(C)C(N)=O)cc(C)c1CCS(=O)(=O)N1CCC2(CC1)N=C(c1cccc(OCCCC(F)(F)F)c1)NC2=O [Compound 1338, 1-[3,5-dimethyl-4-(2-{4-oxo-2-[3-(4,4,4-trifluoro-butoxy)-phenyl]-1,3,8-triaza-spiro[4.5]dec-1-ene-8-sulfonyl}-ethyl)-phenyl]-1-methyl-urea]",84
7,"CC(=O)N(CCO)c1cc(C)c(CCS(=O)(=O)N2CCC3(CC2)N=C(c2cccc(OC(F)(F)F)c2)NC3=O)cc1F [Compound 873, N-(2-fluoro-5-methyl-4-{2-[4-oxo-2-(3-trifluoromethoxy-phenyl)-1,3,8-triaza-spiro[4.5]dec-1-ene-8-sulfonyl]-ethyl}-phenyl)-N-(2-hydroxy-ethyl)-acetamide]",77
8,"Cc1cc(C(=O)N2CCC(O)(CF)CC2)cc(C)c1/C=C/S(=O)(=O)N1CCC2(CC1)N=C(c1ccc(Cl)c(Cl)c1)NC2=O [Compound 1257, 2-(3,4-dichloro-phenyl)-8-{(E)-2-[4-(4-fluoromethyl-4-hydroxy-piperidine-1-carbonyl)-2,6-dimethyl-phenyl]-ethenesulfonyl}-1,3,8-triaza-spiro[4.5]dec-1-en-4-one]",98
9,"Cc1cc(C(=O)N(C)C)ccc1CCS(=O)(=O)N1CCC2(CC1)N=C(c1cccc(S(C)(=O)=O)c1)NC2=O [Compound 110, 4-{2-[2-(3-methanesulfonyl-phenyl)-4-oxo-1,3,8-triaza-spiro[4.5]dec-1-ene-8-sulfonyl]-ethyl}-3,N,N-trimethyl-benzamide]",25
10,"Cc1cc(N(C)C(N)=O)cc(C)c1/C=C/[S@TB3](=O)(=O)N1CCC2(CC1)N=C(c1ccc(F)c(OC(F)(F)F)c1)NC2=O [Compound 1111, 1-(4-{(E)-2-[2-(4-fluoro-3-trifluoromethoxy-phenyl)-4-oxo-1,3,8-triaza-spiro[4.5]dec-1-ene-8-sulfonyl]-vinyl}-3,5-dimethyl-phenyl)-1-methyl-urea]",79
11,"CCOCCCCCCC1=NC2(CCN([S@TB18](=O)(=O)/C=C/c3c(C)cc(N(C)C(N)=O)cc3C)CC2)C(=O)N1 [Compound 1115, 1-(4-{(E)-2-[2-(6-ethoxy-hexyl)-4-oxo-1,3,8-triaza-spiro[4.5]dec-1-ene-8-sulfonyl]-vinyl}-3,5-dimethyl-phenyl)-1-methyl-urea]",140
12,"Cc1cc(C(=O)N2CCC(O)(CF)CC2)cc(C)c1/C=C/S(=O)(=O)N1CCC2(CC1)N=C(c1ccc(OC(F)(F)F)cc1)NC2=O [Compound 1269, 8-{(E)-2-[4-(4-fluoromethyl-4-hydroxy-piperidine-1-carbonyl)-2,6-dimethyl-phenyl]-ethenesulfonyl}-2-(4-trifluoromethoxy-phenyl)-1,3,8-triaza-spiro[4.5]dec-1-en-4-one]",92
13,"Cc1cc(N(C)C(N)=O)cc(C)c1/C=C/S(=O)(=O)N1CCC2(CC1)N=C(CCCCCCCCCO)NC2=O [Compound 1309, 1-(4-{(E)-2-[2-(9-hydroxy-nonyl)-4-oxo-1,3,8-triaza-spiro[4.5]dec-1-ene-8-sulfonyl]-vinyl}-3,5-dimethyl-phenyl)-1-methyl-urea]",109
14,"Cc1cc(C(=O)N2CCC(O)(CF)CC2)cc(C)c1CCS(=O)(=O)N1CCC2(CC1)N=C(c1ccc(C(F)(F)F)c(OCC(F)(F)C(F)F)c1)NC2=O [Compound 1279, 8-{2-[4-(4-fluoromethyl-4-hydroxy-piperidine-1-carbonyl)-2,6-dimethyl-phenyl]-ethanesulfonyl}-2-[3-(2,2,3,3-tetrafluoro-propoxy)-4-trifluoromethyl-phenyl]-1,3,8-triaza-spiro[4.5]dec-1-en-4-one]",113

# Other lines, results leading:
row,cAMP production activity (%),SMILES
1,14,"CNCc1cc(C)c(/C=C/S(=O)(=O)N2CCC3(CC2)N=C(C2CCC(CCC(F)(F)F)CC2)NC3=O)c(C)c1 (stereo not drawn) [Compound 1292, 8-[(E)-2-(2,6-dimethyl-4-methylaminomethyl-phenyl)-ethenesulfonyl]-2-[4-(3,3,3-trifluoro-propyl)-cyclohexyl]-1,3,8-triaza-spiro[4.5]dec-1-en-4-one]"
2,73,"CC(=O)Nc1ccc(CCS(=O)(=O)N2CCC3(CC2)N=C(C2CCC(CCCF)CC2)NC3=O)c(C)c1 (stereo not drawn) [Compound 1064, N-[4-(2-{2-[4-(3-Fluoro-propyl)-cyclohexyl]-4-oxo-1,3,8-triaza-spiro[4.5]dec-1-ene-8-sulfonyl}-ethyl)-3-methyl-phenyl]-acetamide]"
3,84,"Cc1cc(N(C)C(N)=O)cc(C)c1CCS(=O)(=O)N1CCC2(CC1)N=C(C1CCC(C)C1)NC2=O (stereo not drawn) [Compound 1055, 1-(3,5-dimethyl-4-{2-[2-(3-methyl-cyclopentyl)-4-oxo-1,3,8-triaza-spiro[4.5]dec-1-ene-8-sulfonyl]-ethyl}-phenyl)-1-methyl-urea]"
4,82,"Cc1cc(N(C)c2ncc[nH]2)cc(C)c1/C=C/S(=O)(=O)N1CCC2(CC1)N=C(C1CCC(C)CC1)NC2=O (stereo not drawn) [Compound 586, 8-((E)-2-{4-[(1H-imidazol-2-yl)-methyl-amino]-2,6-dimethyl-phenyl}-ethenesulfonyl)-2-(4-methyl-cyclohexyl)-1,3,8-triaza-spiro[4.5]dec-1-en-4-one]"
5,34,"O=C1NC(C2CCCCC2)=NC12CCN(S(=O)(=O)c1ccc3c(c1)OCCO3)CC2 [Compound 60, 2-cyclohexyl-8-(2,3-dihydro-benzo[1,4]dioxine-6-sulfonyl)-1,3,8-triaza-spiro[4.5]dec-1-en-4-one]"
6,56,"CN(C)C(=O)CNc1ccc(/C=C/S(=O)(=O)N2CCC3(CC2)N=C(C2CCCCC2)NC3=O)c(C(F)(F)F)c1 [Compound 201, 2-{4-[(E)-2-(2-cyclohexyl-4-oxo-1,3,8-triaza-spiro[4.5]dec-1-ene-8-sulfonyl)-vinyl]-3-trifluoromethyl-phenylamino}-N,N-dimethyl-acetamide]"
7,74,"Cc1cc(N(C)C(N)=O)cc(Cl)c1CCS(=O)(=O)N1CCC2(CC1)N=C(C1CCC(C)CC1)NC2=O (stereo not drawn) [Compound 683, 1-(3-Chloro-5-methyl-4-{2-[2-(4-methyl-cyclohexyl)-4-oxo-1,3,8-triaza-spiro[4.5]dec-1-ene-8-sulfonyl]-ethyl}-phenyl)-1-methyl-urea]"
8,102,"CCCC[C@@H]1CCC[C@H](C2=NC3(CCN(S(=O)(=O)CCc4c(C)cc(N(C)C(N)=O)cc4C)CC3)C(=O)N2)C1 [Compound 1145, 1-(4-{2-[2-((1S,3R)-3-butyl-cyclohexyl)-4-oxo-1,3,8-triaza-spiro[4.5]dec-1-ene-8-sulfonyl]-ethyl}-3,5-dimethyl-phenyl)-1-methyl-urea]"
9,66,"CC(=O)Nc1ccc(CCS(=O)(=O)N2CCC3(CC2)N=C(C2CCC(F)(CCCF)CC2)NC3=O)c(C)c1 (stereo not drawn) [Compound 1073, N-[4-(2-{2-[4-fluoro-4-(3-fluoro-propyl)-cyclohexyl]-4-oxo-1,3,8-triaza-spiro[4.5]dec-1-ene-8-sulfonyl}-ethyl)-3-methyl-phenyl]-acetamide]"
10,28,"Cc1cc(CN2CCCC2=O)cc(C)c1/C=C/S(=O)(=O)N1CCC2(CC1)N=C(C1CCC(C)CC1)NC2=O (stereo not drawn) [Compound 520, 8-{(E)-2-[2,6-dimethyl-4-(2-oxo-pyrrolidin-1-ylmethyl)-phenyl]-ethenesulfonyl}-2-(4-methyl-cyclohexyl)-1,3,8-triaza-spiro[4.5]dec-1-en-4-one]"

# — patent US9169254B2, “Spiroimidazolone derivative” (Chugai Seiyaku Kabushiki Kaisha, priority 2009, dated 2015)
